The source of these data is US7291710B2, “Detection of spectrin and spectrin proteolytic cleavage products in assessing nerve cell damage” (priority 2002, dated 2007).

Assay [1] deals with calpain and caspase-3 activation in septo-hippocampal cultures. The assay can be described thus: Treatment of septo-hippocampal cultures with calpain, caspase and protein synthesis inhibitors. The assay is classed as cell-based, rat. Particulars: for antagonism of calpain and caspase-3 activation accompanying staurosporine-induced apoptosis: 37.5 μM CalpInh-II, 30 μM Z-D-DCB, pretreatment 1 hour. As for the experimental part:
(§1) Septo-hippocampal cultures. Eighteen day old rat fetuses were removed from deeply anesthetized dams. Septi and hippocampi were dissected in a dissection buffer (HBSS, with 4.2 mM bicarbonate, 1 mM pyruvate, 20 mM HEPES, 3 mg/ml BSA, pH 7.25). After rinsing in DMEM-DM, tissue was dissociated by trituration through the narrow pore of a flame-constricted Pasteur pipette. Dissociated cells were resuspended in DMEM with 10% fetal calf serum (DMEM-10S) and plated on 24-well poly-L-lysine coated plastic culture plates or 12 mm of German glass (Erie Scientific Co.) at a density of 4.36×10^5 cells/mL. Cultures were maintained in a humidified incubator in an atmosphere of 5% CO2 at 37° C. After 5 days of culture, the media was changed to DMEM-DM. […] Subsequent media changes were carried out three times a week. By day 10 in vitro, astrocytes formed a confluent monolayer beneath morphologically mature neurons.
Treatment of septo-hippocampal cultures with calpain, caspase, and protein synthesis inhibitors. Sister cultures were pretreated with either 37.5 μM calpain inhibitor-II (CalpInh-II) (Boehringer Mannheim), 30 μM of the pan-caspase inhibitor Z-D-DCB (obtained from Biochem), or 1 μg/mL of the protein synthesis inhibitor, cycloheximide (Sigma), […] The inhibitor concentrations provide optimal inhibition of calpains, caspase-3 (CPP32) proteases, and protein synthesis. […] This investigation also employed degradation of αII-spectrin to provide independent confirmation that the concentrations of CalpInh-II and Z-D-DCB used in this study to inhibit calpains and caspase-3 proteases. […] Following each experiment, cells were fixed for staining, or protein or DNA extraction was performed.
SDS-Polyacrylamide Gel electrophoresis and immunoblotting. At the end of an experiment, cells were harvested from 5 identical culture wells and collected in 15 ml centrifuge tubes and centrifuged at 3000 g for 5 min. The medium was removed and the pellet cells were rinsed with 1× DPBS. […]

The subject of assay [2] is septo-hippocampal cultures. Kind of assay: αII-spectrin immunoblot of septo-hippocampal cultures after maitotoxin or staurosporine insult. Particulars: maitotoxin 30 min, 1 hr; staurosporine 3 hr; anti-α-spectrin antibody FG 6090. The class given is cell-based, rat. As for the experimental part:
as §1, with “By day 10 in vitro, astrocytes formed a confluent monolayer beneath morphologically mature neurons.” left out
Pharmacological treatment of septo-hippocampal cells with maitotoxin. Ten day old septo-hippocampal cultures were challenged with 0.01-2.0 nM of maitotoxin (Wako Products, Richmond, Va., Cat.# 131-10731) in DMEM-DM and cell viability was monitored at various post-injury time points. […]
Treatment of cultures with staurosporine. Ten day old septo-hippocampal cultures were challenged with 0.05-2.0 μM of staurosporine (Calbiochem, La Jolla, Calif., Cat. # 569397) in DMEM-DM and cell viability was monitored at various post-injury time points. […]
For orientation: Immunoblotting shows a protein as a band on a membrane.

Where a SMILES comes first, the peptide text is derived from it.

Consider `CSCC[C@@H](C=O)NC(=O)[C@H](CC(C)C)NC(=O)[C@H](CC(C)C)NC(C)=O` [CalpInh-II, N-acetyl-Leu-Leu-methioninal] (Ac-Leu-Leu-Met-aldehyde), for which the “antagonism of calpain and caspase-3 activation accompanying staurosporine-induced apoptosis” value in assay [1] is “could antagonize calpain and caspase-3 activation”.
The same measure, in the same setting: then `O=C(O)CC(NC(=O)OCc1ccccc1)C(=O)COC(=O)c1c(Cl)cccc1Cl` [Z-D-DCB, carbobenzoxy-Asp-CH2—OC (O)-2-6-dichlorobenzene], with “could antagonize calpain and caspase-3 activation”.
Take `C[C@@H]1C[C@@H]([C@H](O)CC2CC(=O)NC(=O)C2)C(=O)[C@@H](C)C1` [cycloheximide]: the “effect on calpain and caspase activation and apoptotic cell death” value in assay [1] (1 μg/mL cycloheximide) was “blocked calpain and caspase activation as well as apoptotic cell death”.
Regarding `C=CC[C@H](C)[C@H](C)C[C@@H](O)[C@H](O)[C@@H]1CC[C@@]2(C)O[C@@]3(C)C[C@@]4(C)O[C@H]5/C=C\C[C@H]6O[C@H]7C[C@H]8O[C@H]9C[C@@]%10(C)O[C@@](C)([C@@H]%11CC[C@H]%12O[C@@]%13(C)C[C@H]%14O[C@@]%15(C)C[C@H]%16O[C@@]%17(C)C[C@@H](O)[C@H]([C@@H]%18O[C@H]%19[C@H](O)[C@@H](O)[C@H](C[C@H](O)C[C@@H](O)[C@@H]%20O[C@H]%21[C@H](O)[C@@H](O)[C@H]([C@@H]%22O[C@@H]%23[C@H](O)[C@H]%24O[C@H]%25C[C@H]%26O[C@@H](C[C@H](O)[C@@H](O)[C@H]%27O[C@H]%28[C@H](O)[C@H]%29O[C@H]%30C[C@H]%31O[C@H]%32[C@@H](O)[C@@H](O)[C@H]([C@H](C)[C@H](O)[C@H](C)CC[C@H](OS(=O)(=O)O)[C@H](O)[C@H](C)C[C@@H](O)C(=C)/C(C)=C/CO)O[C@@H]%32[C@H](O)C[C@]%31(C)O[C@@H]%30C[C@]%29(C)O[C@@H]%28C[C@H]%27O)[C@H](OS(=O)(=O)O)[C@H](O)[C@@H]%26O[C@@H]%25C[C@@H]%24O[C@H]%23[C@H](O)[C@H]%22O)O[C@H]%21C[C@H]%20O)O[C@H]%19C[C@H]%18O)O[C@@H]%17[C@H](O)[C@]%16(C)O[C@@H]%15CC[C@]%14(C)O[C@@H]%13C[C@@H]%12O%11)[C@H](O)C[C@@H]%10O[C@]9(C)CC[C@]8(C)O[C@]7(C)C[C@@H]6O[C@@H]5C[C@@H]4O[C@@H]3C[C@@H]2O1` [maitotoxin], in assay [2], the “type of cell death and protease-specific SBDP detected” value was “necrotic cell death mediated by calpain (145 kDa SBDP) but not caspase-3 (120 kDa SBDP)”.
For the compound `CN[C@@H]1C[C@H]2O[C@@](C)([C@@H]1OC)n1c3ccccc3c3c4c(c5c6ccccc6n2c5c31)C(=O)NC4` [staurosporine], the “type of cell death and protease-specific SBDP detected” value in assay [2] is reported as “apoptotic cell death mediated by caspase-3 (120 kDa SBDP) but not by calpain (145 kDa SBDP)”.
